Assays:
emerged weeds [1] = experiment: Post-emergence application in greenhouse trials (scale 0 to 100; expected value by Colby); type: in vivo
Procedure: (§1) In the examples below, using the method of S. R. Colby (1967) “Calculating synergistic and antagonistic responses of herbicide combinations”, Weeds 15, p. 22ff., the value E, which is expected if the activity of the individual active compounds is only additive, was calculated:
(§2) [formula] • where • X=percent activity using active herbicide A at an application rate a; • Y=percent activity using active herbicide B (e.g. acetochlor) at an application rate b; • E=expected activity (in %) by A+B at application rates a+b.
(§3) If the value found experimentally is higher than the value E calculated according to Colby, a synergistic effect is present.
The culture containers used were plastic pots containing loamy sand with approximately 3.0% of humus as substrate. The seeds of the test plants were sown separately for each species.
[…] To this end, the test plants were either sown directly, and grown in the same containers, or they were first grown separately as seedlings and transplanted into the test containers a few days prior to treatment.
Depending on the species, the plants were kept at 10-25° C. and 20-35° C., respectively. The test period extended over 2 to 4 weeks. During this time, the plants were tended and their response to the individual treatments was evaluated.
(§4) Evaluation was carried out using a scale from 0 to 100. 100 means no emergence of the plants, or complete destruction of at least the above-ground parts, and 0 means no damage or normal course of growth. A good herbicidal activity is given at values of at least 70, and very good herbicidal activity is given at values of at least 85.
Herbicide A-1 and acetochlor were, together with addition of 0.5% MSO (methylated sed oil) as adjuvant, formulated in water as distribution medium (water volume 200 l/ha) and sprayed with commercial flat fan nozzles.
Herbicide A-1, acetochlor and mesotrione were, together with addition of 0.5 v/v % MSO (methylated sed oil) as adjuvant, formulated in water as distribution medium (water volume 200 l/ha) and sprayed with commercial flat fan nozzles.
Herbicide A-1, acetochlor and topramezone were, together with addition of 0.5 v/v % MSO (methylated sed oil) as adjuvant, formulated in water as distribution medium (water volume 200 l/ha) and sprayed with commercial flat fan nozzles.

emerged weeds [2] = experiment: Post-emergence application in field trials (expected value by Colby); type: in vivo
Procedure: as §1, §2, §3, §4
Herbicide A-1 and acetochlor were, together with addition of 0.25% MSO (methylated sed oil) as adjuvant, formulated in water as distribution medium (water volume 200 l/ha) and sprayed with commercial flat fan nozzles.

[3] = ABUTH, growth stage 15, 7 DAT, g ai/ha: A-1 0.5, B 200, C-24 50
[4] = ABUTH, growth stage 15, 7 DAT, g ai/ha: A-1 0.5, B 200, C-25 3.125
[5] = ABUTH, growth stage 15, 21 DAT, g ai/ha: A-1 0.25, B 200, C-24 50
[6] = AVEFA, growth stage 11, 7 DAT, g ai/ha: A-1 2, B 200, C-25 3.125
[7] = AVEFA, growth stage 11, 21 DAT, g ai/ha: A-1 2, B 200, C-24 50
[8] = AVEFA, growth stage 11, 21 DAT, g ai/ha: A-1 2, B 200, C-25 3.125
[9] = AVEFA, growth stage 12, 7 DAT, g ai/ha: A-1 2, B 400
[10] = AVEFA, growth stage 12, 19 DAT, g ai/ha: A-1 2, B 400
[11] = BRADC, growth stage 11, 21 DAT, g ai/ha: A-1 2, B 200, C-25 3.125
[12] = COMBE, growth stage 13, 21 DAT, g ai/ha: A-1 1, B 200, C-24 50
[13] = COMBE, growth stage 13, 21 DAT, g ai/ha: A-1 1, B 200, C-25 3.125
[14] = ECHCG, growth stage 12, 21 DAT, g ai/ha: A-1 2, B 200, C-24 50
[15] = ECHCG, growth stage 12, 21 DAT, g ai/ha: A-1 2, B 200, C-25 3.125
[16] = ECHCG, growth stage 13, 7 DAT, g ai/ha: A-1 0.5, B 400
[17] = ECHCG, growth stage 13, 19 DAT, g ai/ha: A-1 0.5, B 400
[18] = ELEIN, growth stage 14, 7 DAT, g ai/ha: A-1 2, B 400
[19] = ERICA, growth stage 19, 7 DAT, g ai/ha: A-1 2, B 200, C-25 3.125
[20] = GLXMA, growth stage 18, 7 DAT, g ai/ha: A-1 1, B 200, C-25 3.125
[21] = KCHSC, growth stage 29, 21 DAT, g ai/ha: A-1 1, B 200, C-25 3.125
[22] = KCHSC, growth stage 29, 21 DAT, g ai/ha: A-1 2, B 200, C-25 3.125
[23] = LOLMU, growth stage 11, 7 DAT, g ai/ha: A-1 2, B 200, C-25 3.125
[24] = LOLMU, growth stage 11, 21 DAT, g ai/ha: A-1 2, B 200, C-25 3.125
[25] = ZEAMX, growth stage 12, 21 DAT, g ai/ha: A-1 2, B 200, C-24 50
[26] = ZEAMX, growth stage 12, 21 DAT, g ai/ha: A-1 2, B 200, C-25 3.125
[27] = AMARE, growth stage 31-49, height 10-12 cm, 7 DAT, g ai/ha: A-1 12.5, B 1050
[28] = AMARE, growth stage 31-49, height 10-12 cm, 21 DAT, g ai/ha: A-1 12.5, B 1050
[29] = DIGSA, growth stage 22, height 10-15 cm, 7 DAT, g ai/ha: A-1 12.5, B 1050
[30] = DIGSA, growth stage 22, height 10-15 cm, 21 DAT, g ai/ha: A-1 12.5, B 1050
[31] = DIGSA, growth stage 22, height 10-15 cm, 42 DAT, g ai/ha: A-1 12.5, B 1050
[32] = ECHCG, growth stage 22-23, height 19-30 cm, 7 DAT, g ai/ha: A-1 12.5, B 1050
[33] = ECHCG, growth stage 22-23, height 19-30 cm, 7 DAT, g ai/ha: A-1 18, B 1050
[34] = ECHCG, growth stage 22-23, height 19-30 cm, 21 DAT, g ai/ha: A-1 12.5, B 1050
[35] = ECHCG, growth stage 22-23, height 19-30 cm, 21 DAT, g ai/ha: A-1 18, B 1050
[36] = ECHCG, growth stage 22-23, height 19-30 cm, 42 DAT, g ai/ha: A-1 12.5, B 1050
[37] = ECHCG, growth stage 22-23, height 19-30 cm, 42 DAT, g ai/ha: A-1 18, B 1050
[38] = GLXMA, growth stage 12-13, height 7-11 cm, 42 DAT, g ai/ha: A-1 18, B 1050
[39] = HORVW, growth stage 23-29, height 20-25 cm, 21 DAT, g ai/ha: A-1 12.5, B 1050
[40] = HORVW, growth stage 23-29, height 20-25 cm, 21 DAT, g ai/ha: A-1 18, B 1050
[41] = HORVW, growth stage 23-29, height 20-25 cm, 28 DAT, g ai/ha: A-1 12.5, B 1050
[42] = HORVW, growth stage 23-29, height 20-25 cm, 28 DAT, g ai/ha: A-1 18, B 1050
[43] = ZEAMX, growth stage 15-16, height 50-60 cm, 7 DAT, g ai/ha: A-1 12.5, B 1050
[44] = ZEAMX, growth stage 15-16, height 50-60 cm, 21 DAT, g ai/ha: A-1 12.5, B 1050
[45] = ZEAMX, growth stage 15-16, height 50-60 cm, 28 DAT, g ai/ha: A-1 12.5, B 1050
[46] = ZEAMX, growth stage 15-16, height 50-60 cm, 28 DAT, g ai/ha: A-1 18, B 1050

Measured: % Herbicidal activity

CCOC(=O)COc1ccccc1Oc1nc(-n2c(=O)cc(C(F)(F)F)n(C)c2=O)c(F)cc1Cl [A-1, ethyl 2-[2-[[3-chloro-5-fluoro-6-[3-methyl-2,6-dioxo-4-(trifluoromethyl)pyrimidin-1-yl]-2-pyridyl]oxy]phenoxy]acetate]
50%: emerged weeds [2]; [34] | emerged weeds [2]; [37]
15%: emerged weeds [1]; [17]
60%: emerged weeds [1]; [5] | emerged weeds [1]; [21]
30%: emerged weeds [1]; [7] | emerged weeds [1]; [8] | emerged weeds [1]; [11] | emerged weeds [1]; [14] | emerged weeds [1]; [15]
70%: emerged weeds [2]; [30] | emerged weeds [2]; [31] | emerged weeds [2]; [39] | emerged weeds [2]; [44] | emerged weeds [2]; [46]
40%: emerged weeds [1]; [16] | emerged weeds [1]; [25] | emerged weeds [1]; [26] | emerged weeds [2]; [45]
90%: emerged weeds [1]; [20]
95%: emerged weeds [2]; [27] | emerged weeds [2]; [41] | emerged weeds [2]; [42]
45%: emerged weeds [2]; [36]
85%: emerged weeds [1]; [3] | emerged weeds [1]; [4] | emerged weeds [2]; [38]
55%: emerged weeds [1]; [6] | emerged weeds [2]; [32] | emerged weeds [2]; [33] | emerged weeds [2]; [35]
75%: emerged weeds [1]; [9] | emerged weeds [1]; [10] | emerged weeds [1]; [18] | emerged weeds [1]; [22] | emerged weeds [2]; [29]
80%: emerged weeds [1]; [12] | emerged weeds [1]; [13] | emerged weeds [1]; [19] | emerged weeds [2]; [28] | emerged weeds [2]; [40] | emerged weeds [2]; [43]
10%: emerged weeds [1]; [23] | emerged weeds [1]; [24]

CCOCN(C(=O)CCl)c1c(C)cccc1CC [B, acetochlor]
10%: emerged weeds [1]; [16] | emerged weeds [2]; [29] | emerged weeds [2]; [30] | emerged weeds [2]; [31] | emerged weeds [2]; [39] | emerged weeds [2]; [40] | emerged weeds [2]; [41] | emerged weeds [2]; [42]
40%: emerged weeds [2]; [27]
5%: emerged weeds [1]; [11] | emerged weeds [1]; [12] | emerged weeds [1]; [13] | emerged weeds [1]; [14] | emerged weeds [1]; [15] | emerged weeds [1]; [25] | emerged weeds [1]; [26]
8%: emerged weeds [2]; [43]
20%: emerged weeds [2]; [38]
25%: emerged weeds [2]; [28]
15%: emerged weeds [1]; [19]
60%: emerged weeds [1]; [17]
0%: emerged weeds [1]; [3] | emerged weeds [1]; [4] | emerged weeds [1]; [5] | emerged weeds [1]; [6] | emerged weeds [1]; [7] | emerged weeds [1]; [8] | emerged weeds [1]; [9] | emerged weeds [1]; [10] | emerged weeds [1]; [18] | emerged weeds [1]; [20] | emerged weeds [1]; [21] | emerged weeds [1]; [22] | emerged weeds [1]; [23] | emerged weeds [1]; [24] | emerged weeds [2]; [32] | emerged weeds [2]; [33] | emerged weeds [2]; [34] | emerged weeds [2]; [35] | emerged weeds [2]; [36] | emerged weeds [2]; [37] | emerged weeds [2]; [44] | emerged weeds [2]; [45] | emerged weeds [2]; [46]

CS(=O)(=O)c1ccc(C(=O)C2C(=O)CCCC2=O)c([N+](=O)[O-])c1 [C-24, mesotrione]
95%: emerged weeds [1]; [14]
90%: emerged weeds [1]; [5] | emerged weeds [1]; [12]
10%: emerged weeds [1]; [7]
0%: emerged weeds [1]; [25]
60%: emerged weeds [1]; [3]

Cc1c(C(=O)c2cnn(C)c2O)ccc(S(C)(=O)=O)c1C1=NOCC1 [C-25, topramezone]
20%: emerged weeds [1]; [20]
10%: emerged weeds [1]; [6] | emerged weeds [1]; [8] | emerged weeds [1]; [21] | emerged weeds [1]; [22]
50%: emerged weeds [1]; [4]
0%: emerged weeds [1]; [23] | emerged weeds [1]; [24] | emerged weeds [1]; [26]
55%: emerged weeds [1]; [11]
35%: emerged weeds [1]; [13] | emerged weeds [1]; [19]
80%: emerged weeds [1]; [15]

Reference: patent US12599134B2, “Herbicidal compositions comprising acetochlor” (BASF SE, priority 2024, dated 2026)
